Results: patent publication US20210198277A1, “AMINE-SUBSTITUTED ARYL OR HETEROARYL COMPOUNDS” (Epizyme, Inc., priority 2016, published 2021)

What was measured:
[1] = target: T1, human EHMT2 913-1193 (Homo sapiens, UniProt Q96KQ7); assay: EHMT2 enzyme assay on histone peptide substrate (EHMT2 PEP); assay type: biochemical; conditions: Table VI; read-out: EHMT2 PEP IC50
T1 construct: recombinant purified human EHMT2 913-1193, Viva; purchased Viva
T1 sequence (Q96KQ7 913-1193): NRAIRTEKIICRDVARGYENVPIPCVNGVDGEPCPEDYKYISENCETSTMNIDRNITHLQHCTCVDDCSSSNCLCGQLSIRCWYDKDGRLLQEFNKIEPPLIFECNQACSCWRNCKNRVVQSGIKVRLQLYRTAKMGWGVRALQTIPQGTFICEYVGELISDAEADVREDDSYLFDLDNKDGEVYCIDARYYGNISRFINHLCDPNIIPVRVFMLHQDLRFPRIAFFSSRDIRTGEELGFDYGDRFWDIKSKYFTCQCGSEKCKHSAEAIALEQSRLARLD
Summary of the method: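 Radiometric methyltransferase assay: 0.031 nM EHMT2 913-1193 preincubated 30 min with compound (10-point 3-fold series, top final 50 μM, 2% DMSO) in 20 mM Bicine pH 7.5, 1 mM TCEP. Biotinylated histone peptide methylated with ^3H-SAM for 60 min at room temperature, quenched with unlabeled SAM, captured on streptavidin Flashplates and counted.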

[2] = target: T2, EHMT1 (Homo sapiens, UniProt Q9H9B1); assay: EHMT1 enzyme assay on peptide substrate (EHMT1 PEP); assay type: biochemical; conditions: Table VI; read-out: EHMT1 PEP IC50
T2 sequence (Q9H9B1 1-1298): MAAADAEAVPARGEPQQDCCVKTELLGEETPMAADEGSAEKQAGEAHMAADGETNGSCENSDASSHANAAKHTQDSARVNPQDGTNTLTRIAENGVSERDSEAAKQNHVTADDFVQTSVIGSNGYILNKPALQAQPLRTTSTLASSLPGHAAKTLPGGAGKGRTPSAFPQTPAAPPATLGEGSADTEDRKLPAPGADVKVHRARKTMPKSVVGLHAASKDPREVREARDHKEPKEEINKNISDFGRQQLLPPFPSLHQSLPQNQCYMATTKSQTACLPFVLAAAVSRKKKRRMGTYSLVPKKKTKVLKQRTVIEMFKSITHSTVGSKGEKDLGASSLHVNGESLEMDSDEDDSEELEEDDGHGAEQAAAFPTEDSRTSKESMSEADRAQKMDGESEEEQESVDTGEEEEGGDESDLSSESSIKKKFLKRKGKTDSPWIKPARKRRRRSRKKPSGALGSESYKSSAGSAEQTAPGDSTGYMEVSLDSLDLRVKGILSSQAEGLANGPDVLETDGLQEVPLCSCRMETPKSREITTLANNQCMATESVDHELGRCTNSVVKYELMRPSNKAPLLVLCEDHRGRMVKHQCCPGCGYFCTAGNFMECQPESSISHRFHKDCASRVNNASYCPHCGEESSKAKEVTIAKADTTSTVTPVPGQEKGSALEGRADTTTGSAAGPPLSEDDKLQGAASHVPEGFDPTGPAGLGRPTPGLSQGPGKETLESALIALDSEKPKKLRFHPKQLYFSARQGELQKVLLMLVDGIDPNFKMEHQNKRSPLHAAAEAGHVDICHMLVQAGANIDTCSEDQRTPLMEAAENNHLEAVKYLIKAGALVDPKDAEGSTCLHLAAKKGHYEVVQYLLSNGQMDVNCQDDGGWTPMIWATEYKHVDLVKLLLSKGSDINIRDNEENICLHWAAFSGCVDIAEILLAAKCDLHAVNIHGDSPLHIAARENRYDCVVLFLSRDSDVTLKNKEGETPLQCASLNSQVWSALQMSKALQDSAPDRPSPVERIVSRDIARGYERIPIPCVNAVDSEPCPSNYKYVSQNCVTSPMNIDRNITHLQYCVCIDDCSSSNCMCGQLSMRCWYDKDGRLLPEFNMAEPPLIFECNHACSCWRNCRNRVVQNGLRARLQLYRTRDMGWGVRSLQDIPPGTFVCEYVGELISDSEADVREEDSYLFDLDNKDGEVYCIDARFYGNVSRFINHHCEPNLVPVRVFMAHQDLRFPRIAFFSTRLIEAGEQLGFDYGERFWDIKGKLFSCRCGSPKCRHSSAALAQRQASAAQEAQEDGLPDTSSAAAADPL

IC50 [1] [nM]	IC50 [2] [nM]	Compound
> 10000	1000 to 10000	CCN1CCO[C@@H](COc2cc(Nc3nccc(NC)n3)ccc2OC)C1 [Compound 932]
> 10000	1000 to 10000	CNc1ccnc(Nc2ccc(OC)c(OC[C@H]3CNCCO3)c2)n1 [Compound 933]
> 10000	> 10000	CNc1ccnc(Nc2ccc(OC)c(OC[C@@H]3CN(C)CCO3)c2)n1 [Compound 936]
> 10000	> 10000	CCN1CCO[C@H](COc2cc(Nc3nccc(NC)n3)ccc2OC)C1 [Compound 937]
> 10000	> 10000	CNc1ccnc(Nc2ccc(OC)c(OC[C@@H]3CNCCO3)c2)n1 [Compound 938]
1000 to 10000	1000 to 10000	CNc1ccnc(Nc2ccc(OC)c(OC[C@@H](C)CN3CCC3)c2)n1 [Compound 943]
100 to 1000	< 100	CNc1ccnc(Nc2ccc(OC)c(OC[C@H](C)CN3CCC3)c2)n1 [Compound 945]
< 100	< 100	CCN1CC[C@@H](COc2cc(Nc3nc(C)cc4[nH]ncc34)ncc2OC)C1 [Compound 947]
100 to 1000	< 100	CNc1cc(C)nc(Nc2cnc(OC)c(OCCCN3CCC3)c2)n1 [Compound 949]
100 to 1000	100 to 1000	COc1cc2c(C3CCN(C)CC3)nc(N3CCCC3)nc2cc1OCCCN1CC(O)C1 [Compound 950]
100 to 1000	< 100	CCN1CC(COc2cc3nc(NC)nc(C4CCN(C)CC4)c3cc2OC)C1 [Compound 951]
1000 to 10000	1000 to 10000	CNc1nc(C2=CC(C)(C)NC(C)(C)C2)c2cc(OC)c(OCCCN3CCCC3)cc2n1 [Compound 961]
100 to 1000	100 to 1000	CNc1cc(C)nc(Nc2ccc(OC)c(OC[C@H](O)CNC3CCC3)c2)n1 [Compound 962]
< 100	< 100	CNc1cc(C)nc(Nc2cnc(OC)c(OC[C@H](O)CN3CCC3)c2)n1 [Compound 963]
100 to 1000	< 100	CNCCNCc1cc(Nc2nc(C)cc(NC)n2)ccc1OC [Compound 964]
< 100	< 100	CNc1cc(C)nc(Nc2ccc(OC)c(CNCCN3CCC3)c2)n1 [Compound 965]
100 to 1000	< 100	CNc1ccnc(Nc2cnc(OC)c(OC[C@@H]3CCN(C4CCC4)C3)n2)n1 [Compound 974]
100 to 1000	< 100	CNc1cc(C)nc(Nc2ccc(OC)c(OC[C@H](O)CN3CC(C)C3)c2)n1 [Compound 985]
100 to 1000	100 to 1000	CNc1cc(C)nc(Nc2ccc(OC)c(OC[C@H](O)CN3CC(F)C3)c2)n1 [Compound 986]
< 100	< 100	CNc1cc(C)nc(Nc2ccc(OC)c(CNCCN(C)C)c2)n1 [Compound 990]
1000 to 10000	1000 to 10000	CNc1ccnc(Nc2ccc(OC)c(OCC(C)(O)CN3CCC3)c2)n1 (centres unmarked) [Compound 1005]
100 to 1000	< 100	CCN1CCC(O)(COc2cc(Nc3nccc(NC)n3)ccc2OC)C1 (centres unmarked) [Compound 1006]
> 10000	1000 to 10000	CCN1CCC(O)(COc2cc(Nc3nccc(NC)n3)ccc2OC)C1 (centres unmarked) [Compound 1007]
100 to 1000	< 100	CNc1ccnc(Nc2ccc(OC)c(OCC(C)CN3CCC3)c2)n1 (centres unmarked) [Compound 1008]
1000 to 10000	1000 to 10000	CNCC(C)COc1cc(Nc2nccc(NC)n2)ccc1OC (centres unmarked) [Compound 1009]
1000 to 10000	1000 to 10000	CNCCC(C)Oc1cc(Nc2nccc(NC)n2)ccc1OC (centres unmarked) [Compound 1011]
1000 to 10000	100 to 1000	CNc1ccnc(Nc2ccc(OC)c(OCCC(C)N3CCC3)c2)n1 (centres unmarked) [Compound 1014]
1000 to 10000	100 to 1000	CNc1ccnc(Nc2ccc(OC)c(OCCC(C)NC)c2)n1 (centres unmarked) [Compound 1016]
